From paper PMC6675120, “Potent and selective inhibitors for M32 metallocarboxypeptidases identified from high-throughput screening of anti-kinetoplastid chemical boxes” (PLoS Neglected Tropical Diseases, 2019)
Values joined by “and” are separate entries in the source; they are usually repeats but may differ in a detail not shown here. Identical values can stand only once. Like-named read-outs stand apart in the source and are kept apart here.

Key:
TcMCP-1 = TcMCP-1 (Trypanosoma cruzi, UniProt Q6ZXC0); assay: Continuous fluorogenic (FRET) TcMCP-1 assay with Abz-LKFK(Dnp)-OH, primary and secondary screening; format: biochemical; design: inhibition: dose or concentration left out as unconfirmed; settings: for TcMCP-1 Hill Slope: four-parameter Hill fit of dose-response curve; for TcMCP-1 2º/1º ratio: secondary (31,5 µM) / primary (25 µM) inhibition; for TcMCP-1 Primary screening Inhibition (%) / inhibition at 25 µM: single inhibitor concentration 25 µM; for TcMCP-1 Secondary screening Inhibition (%): single inhibitor concentration 31,5 µM; for inhibition: read-out: TcMCP-1 Secondary screening Inhibition (%); for EDTA control (RFU/sec) Mean: EDTA final concentration 31,25 mM, inhibition control
TcMCP-1, sequence (Q6ZXC0 entry or part of it): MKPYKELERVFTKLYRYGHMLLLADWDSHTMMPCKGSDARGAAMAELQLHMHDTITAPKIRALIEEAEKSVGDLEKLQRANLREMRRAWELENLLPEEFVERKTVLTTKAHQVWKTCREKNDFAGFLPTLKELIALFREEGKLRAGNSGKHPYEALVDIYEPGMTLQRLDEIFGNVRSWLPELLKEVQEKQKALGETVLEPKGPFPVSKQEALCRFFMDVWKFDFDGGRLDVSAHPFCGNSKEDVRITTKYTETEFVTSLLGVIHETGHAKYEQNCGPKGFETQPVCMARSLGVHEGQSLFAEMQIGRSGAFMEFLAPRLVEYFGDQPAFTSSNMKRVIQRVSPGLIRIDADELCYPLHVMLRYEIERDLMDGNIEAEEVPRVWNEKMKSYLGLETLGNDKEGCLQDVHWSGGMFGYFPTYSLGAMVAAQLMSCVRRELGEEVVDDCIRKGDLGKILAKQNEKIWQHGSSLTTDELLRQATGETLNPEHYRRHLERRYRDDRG
Experimental: (§1) TcMCP-1 (MEROPS ID: M32.003) and TbMCP-1 were expressed as GST fusion proteins in E. coli BL21 (DE3) Codon Plus and purified as previously described.
(§2) TbMCP-1 and TcMCP-1 activities were assayed fluorometrically with Abz-RFFK(Dnp)-OH and Abz-LKFK(Dnp)-OH substrates, respectively, in 100 mM MOPS pH 7,2 containing 0,01% Triton X-100. Assays were performed in solid black 384-well plates (final reaction volume ~80 μL) and the hydrolysis of the K(Dnp)-OH group was monitored continuously at 30 °C with a Beckman Coulter DTX 880 Multimode Reader (Radnor, Pennsylvania, USA) using standard 320 nm excitation and 420 nm emission filter set.
(§3) In all cases, EDTA (final concentration 31,25 mM) was used as positive inhibition control.
(§4) Then, 40 μL of 100 mM MOPS, 0,01% Triton X-100 pH 7,2 containing TbMCP-1 (2,50 nM) or TcMCP-1 (0,34 nM) were added to each well, plates were homogenized (30 seg, orbital, medium intensity) and each well subjected to a single autofluorescence read (ex/em = 320/420 nm). Plates were incubated in darkness for 15 min at 30 °C and then 40 μL of Abz-RFFK(Dnp)-OH (4 μM) or Abz-LKFK(Dnp)-OH (0,8 μM) in assay buffer were added to each well to start the reaction. After homogenization (30 seg, orbital, medium intensity), the fluorescence of the Abz group (ortho-aminobenzoic acid) (ex/em = 320/420 nm) was acquired kinetically for each well (8 read cycles, one cycle every 300 seconds). Considering our previous experiences, the auto-fluorescent cut-off was arbitrarily set at 2x10^5 RFU to discard highly interfering compounds. All compounds were assayed in singlet (without replicates) due to the limited availability of stocks.
(§5) Raw screening measurements were used to determine the slope (dF/dt) of progression curves by linear regression for control and non-interfering compound wells. In the case of control-dependent hit selection criteria, percent inhibition percentage (%Inh) was calculated for each compound according to the following equation: Inh=100∙[1−(dF/dt^WELL−μ^C−)/(μ^C+−μ^C−)] (1) where dF/dt^WELL represents the slope of each compound well and μ^C+ and μ^C− the average of MCP (no-inhibition) and substrate (no-enzyme) controls, respectively.
(§6) Compounds selected from primary screening were re-tested in a dose-response manner (final concentration ranging from 7,5 to 62,5 μM) using identical assay conditions. To avoid any positional and/or association bias, we randomly defined the row position for each compound. One μL of compounds stock (10 mM in DMSO) and EDTA (31,25 mM) were added to the first well of column 1, followed by addition of 40 μL of 100 mM MOPS, 0,01% Triton X-100 pH 7,2 buffer. After addition of 20 μL of the same buffer to subsequent wells of the plate, 22 serial 2-fold dilutions were made horizontally. The last two positions of every row were used, alternatively, for C^+ and C^− controls to reduce any positional and/or association bias. Then, 20 μL of activity buffer containing TbMCP-1 or TcMCP-1 were added to each well, except for those corresponding to C^−; completed with 20 μL of activity buffer. After homogenization, 15 minutes of incubation at 30°C and autofluorescence measurement, the substrate (in activity buffer) was added to the previous mix. Data collection and processing were performed exactly as described above. Percentage of M32 MCPs residual activity was calculated for each condition according to the following equation: %Res.Act^MCP=100∙[(dF/dt^WELL−μ^C−)/(μ^C+−μ^C−)] (2) where dF/dt^WELL represents the slope of each compound well and μ^C+ and μ^C− the average of MCP (no-inhibition) and substrate (no-enzyme) controls, respectively.

TbMCP-1 = TbMCP-1 (Trypanosoma brucei, UniProt Q386R0); assay: Continuous fluorogenic (FRET) TbMCP-1 assay with Abz-RFFK(Dnp)-OH, primary and secondary screening; format: biochemical; settings: for TbMCP-1 2º/1º ratio: secondary (31,5 µM) / primary (25 µM) inhibition; for TbMCP-1 Secondary screening Inhibition (%) / inhibition: single inhibitor concentration 31,5 µM; for TbMCP-1 Hill Slope: four-parameter Hill fit of dose-response curve; for inhibition at 25 µM: read-out: TbMCP-1 Primary screening Inhibition (%); for EDTA control (RFU/sec) Mean: EDTA final concentration 31,25 mM, inhibition control
TbMCP-1, sequence (Q386R0 entry or part of it): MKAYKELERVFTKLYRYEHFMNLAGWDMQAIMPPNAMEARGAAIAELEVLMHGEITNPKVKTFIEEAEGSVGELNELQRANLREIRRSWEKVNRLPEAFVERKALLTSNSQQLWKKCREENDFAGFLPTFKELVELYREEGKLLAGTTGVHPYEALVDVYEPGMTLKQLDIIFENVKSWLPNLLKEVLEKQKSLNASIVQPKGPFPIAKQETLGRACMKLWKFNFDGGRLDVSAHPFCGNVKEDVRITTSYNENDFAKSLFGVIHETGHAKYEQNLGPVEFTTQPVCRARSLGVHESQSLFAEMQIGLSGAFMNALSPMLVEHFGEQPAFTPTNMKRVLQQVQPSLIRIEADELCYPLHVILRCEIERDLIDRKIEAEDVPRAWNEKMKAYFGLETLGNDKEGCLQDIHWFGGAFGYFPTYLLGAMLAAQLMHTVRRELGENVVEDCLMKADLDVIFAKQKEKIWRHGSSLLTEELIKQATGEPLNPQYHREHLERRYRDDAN
Experimental: as §1, §2, §3, §4, §5
as §6, with “To” for “Compounds selected from primary screening were re-tested in a dose-response manner (final concentration ranging from 7,5 to 62,5 μM) using identical assay conditions. To”

[1] = secondary screening, two-fold dilutions 7,5 pM to 62,5 μM, KM/[S] ~ 1, no replicates
[2] = single inhibitor concentration 25 µM

| Structure (SMILES) | IC50 (TcMCP-1) [µM] | TcMCP-1 Hill Slope (TcMCP-1) | TcMCP-1 2º/1º ratio (TcMCP-1) | IC50 (TcMCP-1; [1]) | TcMCP-1 Primary screening Inhibition (%) (TcMCP-1) | TcMCP-1 Secondary screening Inhibition (%) (TcMCP-1) | TbMCP-1 2º/1º ratio (TbMCP-1) | TbMCP-1 Secondary screening Inhibition (%) (TbMCP-1) | IC50 (TbMCP-1) [µM] | TbMCP-1 Hill Slope (TbMCP-1) | inhibition at 25 µM (TbMCP-1; [2]) [%] | inhibition (TbMCP-1) [%] | TbMCP-1 Primary screening Inhibition (%) (TbMCP-1; [2]) | also measured |
| --- | --- | --- | --- | --- | --- | --- | --- | --- | --- | --- | --- | --- | --- | --- |
| O=C(Nc1nc2cc(Cl)ccc2o1)c1cccc(Cl)c1 [TCMDC-143172] | 11.2 | -2,825 | 1,30 | ~10 µM | 65,01% | 84,56% | -0,04 | -1,57% | – | – | – | – | – | TbMCP-1 Primary screening Inhibition (%) (TbMCP-1; single inhibitor concentration 25 µM, 25 µM): 42,44% |
| O=c1[nH]c(C=Cc2cccc(OCCOc3ccccc3)c2)nc(O)c1[N+](=O)[O-] [TCMDC-143209] | 4180 | -1,019 | 1,09 | ≤ 10 µM | – | – | 0,86 | – | 28.3 | -1,2405 | 50 | 42.9 | – | inhibition (TcMCP-1): 92.5%; inhibition at 25 µM (TcMCP-1): 85% |
| CCOC(=O)c1cn[nH]c1S(=O)(=O)N1CCC1c1ccccc1 (centres unmarked) [TCMDC-143456] | – | -0,9597 | 1,10 | ≤ 10 µM | – | – | 1,04 | – | 14.7 | -1,247 | 66.2 | 69 | – | inhibition (TcMCP-1): 97.7%; inhibition at 25 µM (TcMCP-1): 89.1% |
| COc1cc(Nc2nccc(Nc3onc(C)c3C)n2)cc(S(=O)(=O)C2CCOCC2)c1 [TCMDC-143462] | 15.5 | -0,9436 | 1,40 | – | 43,06% | 60,29% | 0,13 | 6,29% | – | – | – | – | 47,90% | – |
| Cl.NS(=O)(=O)c1ccc(Nc2ncc3cccc(OC4CCNCC4)c3n2)cc1 [TCMDC-143382] | 20.6 | -0,7277 | 1,18 | – | 53,63% | 63,12% | 0,99 | 57,14% | 22.6 | -0,7258 | – | – | 57,82% | – |
| O=C(O)CN(CCN(CC(=O)O)CC(=O)O)CC(=O)O [EDTA, reference compound] | – | – | – | – | – | – | – | – | – | – | – | – | – | EDTA control (RFU/sec) Mean (TcMCP-1; Plate 1): 1,28 RFU/sec; EDTA control (RFU/sec) Mean (TcMCP-1; Plate 2): 2,32 RFU/sec; EDTA control (RFU/sec) Mean (TbMCP-1; Plate 1): 0,13 RFU/sec; EDTA control (RFU/sec) Mean (TbMCP-1; Plate 2): 0,39 RFU/sec |
| COc1ccc2ncc(Cl)c(CCN3CC[C@@H](NCc4cc5c(cn4)OCS5)[C@H](O)C3)c2n1 [TCMDC-143513] | 13.5 | -0,9734 | 1,07 | – | 65,65% | 70,48% | 0,76 | 42,64% | 28.3 | -0,8371 | – | – | 56,08% | – |
| Fc1ccccc1N1CC2CCN(c3cccnc3)CC2C1 (centres unmarked) [TCMDC-143422] | 1.52 | -1,038 | 1,19 | ≤ 10 µM | – | – | 0,99 | – | – | -1,206 | 81.1 | 80.2 | – | inhibition (TcMCP-1): 93.9%; inhibition at 25 µM (TcMCP-1): 78.8%; IC50 (TbMCP-1; [1]): 10.5 µM |
| CCn1c(-c2nonc2N)nc2c(C(C)O)ncc(OC(CN)c3ccccc3)c21 (centres unmarked) [TCMDC-143323] | – | – | – | – | – | – | 1,00 | – | – | -0,894 | 87.2 | 87 | – | inhibition on TcMCP-1 (TcMCP-1): < 30% |
| CN(CC1CCCO1)S(=O)(=O)c1ccc(C(=O)Nc2nc(-c3ccccn3)cs2)cc1 (centres unmarked) [TCMDC-143551] | 13.8 | -1,834 | 1,14 | – | 65,04% | 74,11% | 0,99 | 41,97% | 34.5 | -1,562 | – | – | 42,28% | – |
| O=C(c1cccc(Cl)c1Cl)N1CCn2c1nc(-c1ccncc1)cc2=O [TCMDC-143409] | – | – | – | – | – | – | 1,13 | – | – | -1,2409 | 68.9 | 78 | – | inhibition on TcMCP-1 (TcMCP-1): < 30%; IC50 (TbMCP-1; [1]): 10.4 µM |
| C[C@@H](Oc1cc(-n2cnc3ccc(O[C@H]4CCNC4)cc32)sc1C(N)=O)c1ccccc1Cl [TCMDC-143515] | 21.8 | -1,149 | 1,02 | – | 54,26% | 55,47% | 1,26 | 50,90% | 31.7 | -0,8447 | – | – | 40,42% | – |
| CS(=O)(=O)c1cccc(CNC(=O)c2cncc(N3CCN(c4ccc(F)cc4)CC3)c2)c1 [TCMDC-143385] | – | -0,9614 | 1,88 | ≤ 10 µM and ~10 µM | – | – | – | – | – | – | – | – | – | inhibition (TcMCP-1): 80.8%; inhibition at 25 µM (TcMCP-1): 42.9%; inhibition at 25 µM (TbMCP-1): < 40% |
| Cc1cc(C)c(C#N)c(SCC(=O)c2ccc3c(c2)OCO3)n1 [TCMDC-143625] | – | – | 0,45 | – | 43,83% | 19,89% | 0,35 | 17,11% | – | – | – | – | 49,55% | – |
